Key:
[1] = molecular target: T1, hSERT Q111N (S2 site mutant) (Homo sapiens, UniProt P31645, Q111N); test: APP+ transport in HeLa cells expressing hSERT mutant Q111N; format: cell-based; details: 2 μM APP+ 5 min, intact HeLa cells, read-out: SAG IC50 for transport
T1 construct: expressed in transfected cells; host or cells: HeLa (ATCC CCL-2), transient, pcDNA3.1
Experimental: (§1) The mutants used for this study were constructed in the WT background carried by the expression plasmids for hSERT, hDAT, or hNET under the control of CMV promotor in pcDNA3.1 vector, respectively. All mutants were generated using the Mut Express II Fast Mutagenesis Kit (Vazyme) and confirmed by full-length DNA sequencing.
(§2) HeLa cells were cultured in Dulbecco’s Modified Eagle’s Medium supplemented with 10% fetal bovine serum, 100 units/ml penicillin, and 100 μg/ml streptomycin at 37°C in a humidified 5% CO2 incubator. Cells were plated in a 6-well culture plate and grown overnight. Cells at ∼70% confluence were transfected with hSERT, hDAT, or hNET cDNA in pcDNA3.1 by lipofectamine 2000. […] After grown for additional 12–16 h, the cells were assayed for APP^+ or ASP^+ fluorescence image acquisition.
(§3) The cells expressing WT or mutants of hSERT, hDAT, or hNET were wet mounted on polylysine coated glass slides in 12-well plates and applied for the indicated treatments. […] The extent of APP^+ accumulated in the cells was determined by confocal imaging analysis. ASP^+ binding to SERT in the cell membrane was measured with digitonin-permeabilized cells ([Li M. et al., 2022a]). […] After removing excess ASP^+ by rapid washing three times, ASP^+ binding was determined by confocal imaging analysis.
(§4) Images were analyzed using Zen Blue software. […]

[2] = molecular target: T2, hSERT E493N (S2 site mutant) (Homo sapiens, UniProt P31645, E493N); test: APP+ transport in HeLa cells expressing hSERT mutant E493N; format: cell-based; details: 2 μM APP+ 5 min, intact HeLa cells, read-out: SAG IC50 for transport
T2 construct: expressed in transfected cells; host or cells: HeLa (ATCC CCL-2), transient, pcDNA3.1
Experimental: as §1, §2, §3, §4

[3] = molecular target: T3, hSERT E494Q (S2 site mutant) (Homo sapiens, UniProt P31645, E494Q); test: APP+ transport in HeLa cells expressing hSERT mutant E494Q; format: cell-based; details: 2 μM APP+ 5 min, intact HeLa cells, read-out: SAG IC50 for transport
T3 construct: expressed in transfected cells; host or cells: HeLa (ATCC CCL-2), transient, pcDNA3.1
Experimental: as §1, §2, §3, §4

[4] = molecular target: T4, hSERT G498T (S2 site mutant) (Homo sapiens, UniProt P31645, G498T); test: APP+ transport in HeLa cells expressing hSERT mutant G498T; format: cell-based; details: 2 μM APP+ 5 min, intact HeLa cells, read-out: SAG IC50 for transport
T4 construct: expressed in transfected cells; host or cells: HeLa (ATCC CCL-2), transient, pcDNA3.1
Experimental: as §1, §2, §3, §4

[5] = molecular target: T5, hSERT S559A (S2 site mutant) (Homo sapiens, UniProt P31645, S559A); test: APP+ transport in HeLa cells expressing hSERT mutant S559A; format: cell-based; details: 2 μM APP+ 5 min, intact HeLa cells, read-out: SAG IC50 for transport
T5 construct: expressed in transfected cells; host or cells: HeLa (ATCC CCL-2), transient, pcDNA3.1
Experimental: as §1, §2, §3, §4

[6] = molecular target: T6, hSERT P560G (S2 site mutant) (Homo sapiens, UniProt P31645, P560G); test: APP+ transport in HeLa cells expressing hSERT mutant P560G; format: cell-based; details: 2 μM APP+ 5 min, intact HeLa cells, read-out: SAG IC50 for transport
T6 construct: expressed in transfected cells; host or cells: HeLa (ATCC CCL-2), transient, pcDNA3.1
Experimental: as §1, §2, §3, §4

[7] = molecular target: T7, hSERT Q562N (S2 site mutant) (Homo sapiens, UniProt P31645, Q562N); test: APP+ transport in HeLa cells expressing hSERT mutant Q562N; format: cell-based; details: 2 μM APP+ 5 min, intact HeLa cells, read-out: SAG IC50 for transport
T7 construct: expressed in transfected cells; host or cells: HeLa (ATCC CCL-2), transient, pcDNA3.1
Experimental: as §1, §2, §3, §4

[8] = molecular target: T8, hSERT Y579A (S2 site mutant) (Homo sapiens, UniProt P31645, Y579A); test: APP+ transport in HeLa cells expressing hSERT mutant Y579A; format: cell-based; details: 2 μM APP+ 5 min, intact HeLa cells, read-out: SAG IC50 for transport
T8 construct: expressed in transfected cells; host or cells: HeLa (ATCC CCL-2), transient, pcDNA3.1
Experimental: as §1, §2, §3, §4

[9] = molecular target: T9, hSERT T583A (S2 site mutant) (Homo sapiens, UniProt P31645, T583A); test: APP+ transport in HeLa cells expressing hSERT mutant T583A; format: cell-based; details: 2 μM APP+ 5 min, intact HeLa cells, read-out: SAG IC50 for transport
T9 construct: expressed in transfected cells; host or cells: HeLa (ATCC CCL-2), transient, pcDNA3.1
Experimental: as §1, §2, §3, §4

[10] = molecular target: T3, hSERT E494Q (S2 site mutant); test: ASP+ binding in digitonin-permeabilized HeLa cells expressing hSERT E494Q; details: 10 μM ASP+, read-out: SAG IC50 for binding
Experimental: as §1, §2, §3, §4

[11] = molecular target: T10, hSERT P561G (S2 site mutant) (Homo sapiens, UniProt P31645, P561G); test: ASP+ binding in digitonin-permeabilized HeLa cells expressing hSERT P561G; details: 10 μM ASP+, read-out: SAG IC50 for binding
T10 construct: expressed in transfected cells; host or cells: HeLa (ATCC CCL-2), transient, pcDNA3.1
Experimental: as §1, §2, §3, §4

[12] = molecular target: T7, hSERT Q562N (S2 site mutant); test: ASP+ binding in digitonin-permeabilized HeLa cells expressing hSERT Q562N; details: 10 μM ASP+, read-out: SAG IC50 for binding
Experimental: as §1, §2, §3, §4

[13] = molecular target: T11, hDAT D476N (S2 site mutant) (Homo sapiens, UniProt Q01959, D476N); test: APP+ transport in HeLa cells expressing hDAT mutant D476N; format: cell-based; details: intact HeLa cells, read-out: SAG IC50
T11 construct: expressed in transfected cells; host or cells: HeLa
T11 sequence (Q01959 whole entry D476N): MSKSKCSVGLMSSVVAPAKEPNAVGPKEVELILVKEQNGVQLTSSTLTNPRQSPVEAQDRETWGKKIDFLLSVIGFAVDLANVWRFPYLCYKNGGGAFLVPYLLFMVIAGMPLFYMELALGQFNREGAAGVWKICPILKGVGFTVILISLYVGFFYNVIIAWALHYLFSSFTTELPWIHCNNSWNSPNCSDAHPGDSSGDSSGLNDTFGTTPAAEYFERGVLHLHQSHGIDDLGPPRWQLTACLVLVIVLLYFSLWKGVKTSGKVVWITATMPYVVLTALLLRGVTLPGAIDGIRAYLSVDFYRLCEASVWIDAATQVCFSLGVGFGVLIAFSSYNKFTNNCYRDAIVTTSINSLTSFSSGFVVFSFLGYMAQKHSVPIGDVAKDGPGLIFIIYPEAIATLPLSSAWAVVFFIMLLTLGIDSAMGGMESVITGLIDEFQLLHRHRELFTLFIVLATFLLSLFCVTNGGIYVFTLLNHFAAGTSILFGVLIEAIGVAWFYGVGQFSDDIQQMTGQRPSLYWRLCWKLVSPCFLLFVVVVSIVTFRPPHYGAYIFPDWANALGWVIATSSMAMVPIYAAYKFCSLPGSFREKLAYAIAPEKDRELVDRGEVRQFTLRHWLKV
Experimental: as §1, §2, §3, §4

[14] = molecular target: T12, hDAT W562A (S2 site mutant) (Homo sapiens, UniProt Q01959, W562A); test: APP+ transport in HeLa cells expressing hDAT mutant W562A; format: cell-based
T12 construct: expressed in transfected cells; host or cells: HeLa
T12 sequence (Q01959 whole entry W562A): as the sequence (Q01959 whole entry D476N) above, with N476D, W562A counted along it
Experimental: as §1, §2, §3, §4

[15] = molecular target: T13, hDAT F76V (S1 site mutant) (Homo sapiens, UniProt Q01959, F76V); test: APP+ transport in HeLa cells expressing hDAT mutant F76V; format: cell-based
T13 construct: expressed in transfected cells; host or cells: HeLa
T13 sequence (Q01959 whole entry F76V): as the sequence (Q01959 whole entry D476N) above, with F76V, N476D counted along it
Experimental: as §1, §2, §3, §4

[16] = molecular target: T14, hNET F317A (S2 site mutant) (Homo sapiens, UniProt P23975, F317A); test: APP+ transport in HeLa cells expressing hNET mutant F317A; format: cell-based
T14 construct: expressed in transfected cells; host or cells: HeLa
T14 sequence (P23975 whole entry F317A): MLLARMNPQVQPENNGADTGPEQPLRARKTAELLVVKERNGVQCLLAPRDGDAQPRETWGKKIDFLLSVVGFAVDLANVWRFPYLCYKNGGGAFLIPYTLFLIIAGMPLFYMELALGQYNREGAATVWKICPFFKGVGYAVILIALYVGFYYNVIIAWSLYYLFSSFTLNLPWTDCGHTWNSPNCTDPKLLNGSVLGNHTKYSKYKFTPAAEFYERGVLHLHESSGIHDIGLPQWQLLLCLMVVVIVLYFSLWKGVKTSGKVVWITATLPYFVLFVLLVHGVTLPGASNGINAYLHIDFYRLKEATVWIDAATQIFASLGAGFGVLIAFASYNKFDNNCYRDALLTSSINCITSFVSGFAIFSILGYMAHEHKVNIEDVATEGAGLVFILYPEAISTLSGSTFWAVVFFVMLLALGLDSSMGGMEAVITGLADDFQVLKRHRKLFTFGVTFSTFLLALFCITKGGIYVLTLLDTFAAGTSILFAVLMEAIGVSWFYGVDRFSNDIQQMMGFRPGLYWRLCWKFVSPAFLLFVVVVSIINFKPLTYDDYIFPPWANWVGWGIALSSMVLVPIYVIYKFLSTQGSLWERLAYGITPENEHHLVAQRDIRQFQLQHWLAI
Experimental: as §1, §2, §3, §4

[17] = molecular target: T15, hNET T474Q (S2 site mutant) (Homo sapiens, UniProt P23975, T474Q); test: APP+ transport in HeLa cells expressing hNET mutant T474Q; format: cell-based
T15 construct: expressed in transfected cells; host or cells: HeLa
T15 sequence (P23975 whole entry T474Q): as the sequence (P23975 whole entry F317A) above, with A317F, T474Q counted along it
Experimental: as §1
HeLa cells were cultured in Dulbecco’s Modified Eagle’s Medium supplemented with 10% fetal bovine serum, 100 units/ml penicillin, and 100 μg/ml streptomycin at 37°C in a humidified 5% CO2 incubator. Cells were plated in a 6-well culture plate and grown overnight. Cells at ∼70% confluence were transfected with hSERT, hDAT, or hNET cDNA in pcDNA3.1 by lipofectamine 2000. Transfected cells were incubated for 24 h at 37°C with 5% CO2 and then transferred into a 12-well plate placed with polylysine coated slides. After grown for additional 12–16 h, the cells were assayed for APP^+ or ASP^+ fluorescence image acquisition.
The cells expressing WT or mutants of hSERT, hDAT, or hNET were wet mounted on polylysine coated glass slides in 12-well plates and applied for the indicated treatments. In brief, the cells were washed twice with 500 μl KRH buffer containing 20 mM HEPES, pH 7.4, 120 mM NaCl, 1.3 mM KCl, 2.2 mM CaCl2, 1.2 mM MgSO4, and 0.1% (w/v) glucose. […] Excess APP^+ was then removed by rapid washing three times with 500 μl KRH buffer. The extent of APP^+ accumulated in the cells was determined by confocal imaging analysis. ASP^+ binding to SERT in the cell membrane was measured with digitonin-permeabilized cells ([Li M. et al., 2022a]). […] After removing excess ASP^+ by rapid washing three times, ASP^+ binding was determined by confocal imaging analysis.
Images were analyzed using Zen Blue software.
Nonlinear regression fits of experimental and calculated data were performed with Origin (Origin Lab). The statistical analysis given was from multiple experiments. Data with error bars in the figures represent the mean ± SD for at least 10 measurements per condition in one experiment or the mean ± SEM from at least three experiments as indicated, respectively. […]

[18] = molecular target: T16, hNET A477G (S2 site mutant) (Homo sapiens, UniProt P23975, A477G); test: APP+ transport in HeLa cells expressing hNET mutant A477G; format: cell-based; details: intact HeLa cells, read-out: SAG IC50
T16 construct: expressed in transfected cells; host or cells: HeLa
T16 sequence (P23975 whole entry A477G): as the sequence (P23975 whole entry F317A) above, with A317F, A477G counted along it
Experimental: as §1, §2, §3, §4

[19] = molecular target: T17, hNET W559A (S2 site mutant) (Homo sapiens, UniProt P23975, W559A); test: APP+ transport in HeLa cells expressing hNET mutant W559A; format: cell-based; details: intact HeLa cells, read-out: SAG IC50
T17 construct: expressed in transfected cells; host or cells: HeLa
T17 sequence (P23975 whole entry W559A): as the sequence (P23975 whole entry F317A) above, with A317F, W559A counted along it
Experimental: as §1, §2, §3, §4

[20] = molecular target: T18, hNET L563A (S2 site mutant) (Homo sapiens, UniProt P23975, L563A); test: APP+ transport in HeLa cells expressing hNET mutant L563A; format: cell-based; details: intact HeLa cells, read-out: SAG IC50
T18 construct: expressed in transfected cells; host or cells: HeLa
T18 sequence (P23975 whole entry L563A): as the sequence (P23975 whole entry F317A) above, with A317F, L563A counted along it
Experimental: as §1, §2, §3, §4

(-)-Syringaresinol-4-O-β-D-apiofuranosyl-(1→2)-β-D-glucopyranoside [SAG]
IC50 [1]: 19.1 ± 2.2 µM
IC50 [2]: 53.2 ± 6.6 µM
IC50 [3]: 153 ± 2 µM
IC50 [4]: 69.2 ± 3.3 µM
IC50 [5]: 20.2 ± 1.9 µM
IC50 [6]: 243 ± 10 µM
IC50 [7]: 289 ± 11 µM
IC50 [8]: 127 ± 3 µM
IC50 [9]: > 1000 µM
IC50 [10]: 192 ± 16 µM
IC50 [11]: > 1000 µM
IC50 [12]: 450 ± 23 µM
IC50 [13]: 93.8 ± 3.9 µM
Increase in SAG IC50 compared with WT ([14]; hDAT W562A vs WT-hDAT): more than 30 fold
IC50 ([14]; hDAT W562A, intact HeLa cells, read-out: SAG IC50): > 1000 µM
IC50 ([15]; hDAT F76V (S1), intact HeLa cells, read-out: SAG IC50): 18.2 ± 0.8 µM
Effect of mutation on SAG inhibition potency ([15]; hDAT S1 residue Phe76 replaced): little effect
Change in SAG inhibition potency compared to WT ([16]; hNET F317A vs WT-hNET): little change
IC50 ([16]; hNET F317A, intact HeLa cells, read-out: SAG IC50): 36.7 ± 7.6 µM
Change in SAG inhibition potency compared to WT ([17]; hNET T474Q vs WT-hNET): little change
Decrease in SAG inhibition potency compared with WT ([17]; hNET T474Q vs WT-hNET): less than 3 folds
IC50 ([17]; hNET T474Q, intact HeLa cells, read-out: SAG IC50): 49.3 ± 7.9 µM
IC50 [18]: > 1000 µM
IC50 [19]: > 1000 µM
IC50 [20]: 304 ± 12 µM

From PMC9649612, “Molecular docking and biochemical validation of (-)-syringaresinol-4-O-β-D-apiofuranosyl-(1→2)-β-D-glucopyranoside binding to an allosteric site in monoamine transporters” (Frontiers in Pharmacology, 2022)
